Read-outs that look alike come from different tables or passages of the source.
Legend:
[1] = design: method as in doi:10.5599/admet.5.1.373; conditions: calibration set; predetermined by isocratic measurements; cited from earlier work
[2] = design: method as in PMID 11472245; conditions: cited from earlier work
[3] = biological target: human serum albumin (HSA) (Homo sapiens, UniProt P02768); assay: Protein binding on Chiralpak HSA HPLC column; conditions: pH 7.4, Chiralpak HSA
Protocol: (§1) The measurement of the biomimetic properties of the available drugs was conducted in our laboratories. Generic gradient HPLC methods were used to determine the chromatographic hydrophobicity Index (CHI) using mobile phases at three different pH values. The protein binding of the compounds was measured using immobilised human serum albumin (HSA), and alpha-1-acid-glycoprotein (AGP) stationary phases. The phospholipid-binding was measured using the immobilised artificial membrane (IAM) stationary phase. The aim was to establish relationships between the cardiotoxicity potential and the biomimetic binding properties of the drugs and to evaluate their predictive performance.

[4] = system: HSA; conditions: calibration set; equilibrium dialysis; literature; cited from earlier work
[5] = system: HSA; conditions: calibration set; log k = log (%binding/(101-%binding)) from literature % binding
[6] = system: hERG channel; conditions: cited from earlier work
[7] = CHI lipophilicity by gradient reversed-phase HPLC (Gemini NX-C-18); conditions: for chromatographic logD: Gemini NX-C-18 reversed-phase HPLC column, pH 7.4
Protocol: The Chromatographic Hydrophobicity Index (CHI) was measured using the compounds’ calibrated gradient retention times obtained from an Agilent 1100 HPLC fitted with a Gemini NX-C-18 column (Phenomenex Ltd Macclesfield, UK) with dimensions of 50 x 3 mm and 5 μm particle size. […] The mobile phase B was 100 % acetonitrile. […] An acetonitrile linear gradient was used from 0 to 100 %. […] The retention time values for a standard set of compounds listed in Table 1 were used to convert the drug retention times to CHI values.

[8] = system: alpha-1-acid-glycoprotein (AGP); assay: Protein binding on Chiralpak AGP HPLC column; conditions: pH 7.4, Chiralpak AGP
Protocol: as §1

[9] = system: AGP; conditions: calibration set; equilibrium dialysis; literature; cited from earlier work
[10] = system: AGP; assay: Literature % binding to AGP by equilibrium dialysis (calibration set); conditions: log k = log (%binding/(101-%binding)) from literature % binding
[11] = Charge character of the drugs at pH 7.4; format: physicochemical
[12] = Phospholipid binding at pH 7.4 on IAM PC.DD2 HPLC column; format: physicochemical; design: key to CHI IAM: approximates acetonitrile concentration (%) in mobile phase at elution; conditions: for CHI IAM: pH 7.4; for log k IAM: pH 7.4, derived from CHI IAM by equation 1
Protocol: The phospholipid-binding was measured using an IAM PC.DD2 column with dimensions of 100 x 4.6 mm (Regis Technologies Inc., Morton Grove, IL, USA). The gradient retention times were measured using a 50 mM ammonium acetate mobile phase with the pH adjusted to 7.4. The mobile phase flow rate was 1.5 mL/min. […] The cycle time was 6 min, plus an additional 1 min equilibration time was applied while the injector prepared for the next injection. The gradient retention times were calibrated with the acetophenone homologues for which the CHI IAM values have been established using isocratic measurements. […] The CHI Index on the IAM column (CHI IAM) approximates the acetonitrile concentration in the mobile phase when the compound elutes. […] The CHI IAM values have been converted to log k IAM values derived from the CHI IAM values using equation 1. It represents the equivalent value derived from several isocratic measurements with extrapolated log retention factors to 100 % aqueous mobile phase. The log k IAM values can be converted to log K (IAM) values and show linear relationships with the octanol/water partition coefficients.

[13] = system: AGP
[14] = literature values, mean where several reported, molar
[15] = reversed-phase HPLC, Gemini NX-C-18 column (50 x 3 mm, 5 µm)

Chain of human serum albumin (HSA) (P02768 25-609): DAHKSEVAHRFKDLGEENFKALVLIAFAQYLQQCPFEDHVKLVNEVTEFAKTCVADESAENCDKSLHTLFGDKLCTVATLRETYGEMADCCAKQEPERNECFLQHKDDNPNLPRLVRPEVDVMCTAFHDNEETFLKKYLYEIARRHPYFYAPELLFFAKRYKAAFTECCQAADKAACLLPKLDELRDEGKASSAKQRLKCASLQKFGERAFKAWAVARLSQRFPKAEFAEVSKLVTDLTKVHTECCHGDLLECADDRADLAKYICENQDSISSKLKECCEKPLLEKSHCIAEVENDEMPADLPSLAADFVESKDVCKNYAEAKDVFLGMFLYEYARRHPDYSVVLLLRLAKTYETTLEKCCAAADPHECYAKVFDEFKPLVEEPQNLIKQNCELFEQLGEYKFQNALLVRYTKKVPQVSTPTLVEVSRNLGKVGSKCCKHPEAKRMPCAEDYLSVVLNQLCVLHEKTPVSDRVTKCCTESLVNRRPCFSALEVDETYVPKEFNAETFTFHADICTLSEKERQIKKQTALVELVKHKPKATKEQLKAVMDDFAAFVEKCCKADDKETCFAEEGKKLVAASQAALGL

CC(=O)Nc1ccccc1 [Acetanilide]
CHI IAM [1]: 11.5

CC(=O)c1ccccc1 [Acetophenone]
CHI IAM [1]: 17.2
CHI at pH 2.6 ([2]; calibration set): 64.1
CHI at pH 7.4 ([2]; calibration set): 65.1
CHI at pH 10.5 ([2]; calibration set): 64.1

c1ccc2[nH]cnc2c1 [Benzimidazole]
CHI at pH 2.6 ([2]; calibration set): 6.3
CHI at pH 7.4 ([2]; calibration set): 34.3
CHI at pH 10.5 ([2]; calibration set): 30.6

CCCC(=O)c1ccccc1 [Butyrophenone]
CHI IAM [1]: 32.0
CHI at pH 2.6 ([2]; calibration set): 87.3
CHI at pH 7.4 ([2]; calibration set): 87.5
CHI at pH 10.5 ([2]; calibration set): 87.3

NC(=O)N1c2ccccc2C=Cc2ccccc21 [Carbamazepine]
log k HSA [3]: 0.07
%HSA [4]: 75.0%
log k HSA [5]: 0.5
hERG pIC50 [6, 14]: 3.98
chromatographic logD [7]: 1.22
chromatographic logP [7, 15]: 1.33
log k AGP [8]: -0.85
% AGP [9]: 65.0%
log k AGP [10]: 0.3
Charge [11]: Neutral
CHI IAM [12]: 23.98
log k IAM [12]: 1.53

COc1cc2c(c(OC)c1OC)-c1ccc(OC)c(=O)cc1[C@@H](NC(C)=O)CC2 [Colchicine]
CHI at pH 2.6 [2]: 43.9
CHI at pH 7.4 [2]: 45.0
CHI at pH 10.5 [2]: 43.9

O=C(O)Cc1ccccc1Nc1c(Cl)cccc1Cl [Diclofenac]
log k AGP [10]: 0.2

CCCCCCC(=O)c1ccccc1 [Heptanophenone]
CHI IAM [1]: 45.7

CCCCCC(=O)c1ccccc1 [Hexanophenone]
CHI IAM [1]: 41.8

c1ccc2[nH]ccc2c1 [Indole]
CHI at pH 2.6 [2]: 72.1
CHI at pH 7.4 [2]: 71.5
CHI at pH 10.5 [2]: 72.1

COc1ccc2c(c1)c(CC(=O)O)c(C)n2C(=O)c1ccc(Cl)cc1 [Indomethacin]
log k HSA [5]: 1.8
hERG pIC50 [6]: 3.72
chromatographic logP [7]: 3.31
chromatographic logD [7]: 1.47
log k AGP [8]: 0.18
% AGP [9]: 56.0%
log k AGP [10]: 0.1
Charge [11]: Acidic
CHI IAM [12]: 30.11
log k IAM [12]: 1.81

COCCc1ccc(OCC(O)CNC(C)C)cc1 (stereo not shown) [Metoprolol]
log k HSA [3]: -0.72
hERG pIC50 [6, 14]: 3.84
chromatographic logD [7]: 0.77
log k AGP [8]: -0.27
Charge [11]: Basic
CHI IAM [12]: 35.38
log k IAM [12]: 2.05

COC(=O)C1=C(C)NC(C)=C(C(=O)OCCN(C)Cc2ccccc2)C1c1cccc([N+](=O)[O-])c1 (stereo not shown) [Nicardipine]
log k HSA [5]: 1.2
% AGP [9]: 87.0%
log k AGP [10]: 0.8

CNC(=C[N+](=O)[O-])NCCSCc1csc(CN(C)C)n1 [Nizatidine]
%HSA [4]: 20.4%
log k HSA [5]: -0.6
% AGP [9]: 37.1%
log k AGP [10]: -0.2

CCCCCCCC(=O)c1ccccc1 [Octanophenone]
CHI IAM [1]: 49.4

Cc1nccn1CC1CCc2c(c3ccccc3n2C)C1=O (stereo not shown) [Ondansetron]
log k HSA [3]: 0.54
hERG pIC50 [6, 14]: 5.73
chromatographic logD [7]: 1.33
chromatographic logP [7, 15]: 1.66
log k AGP [8]: 1.30
Charge [11]: Weak Base
CHI IAM [12]: 39.01
log k IAM [12]: 2.22

CC(=O)Nc1ccc(O)cc1 [Paracetamol]
CHI IAM [1]: 2.9
%HSA [4]: 14.0%
log k HSA [5]: -0.8
% AGP [9]: 3.2%
log k AGP [10]: -1.5

CCCN1C[C@H](CSC)C[C@@H]2c3cccc4[nH]cc(c34)C[C@H]21 [Pergolide]
log k HSA [3]: 0.73
hERG pIC50 [6, 14]: 6.52
chromatographic logD [7]: 2.47
chromatographic logP [7, 15]: 3.81
log k AGP [8]: 1.04
Charge [11]: Basic
log k IAM [12]: 2.85

c1ccc(-c2nn[nH]n2)cc1 [Phenyl tetrazole]
CHI at pH 2.6 ([2]; calibration set): 42.2
CHI at pH 7.4 ([2]; calibration set): 23.6
CHI at pH 10.5 ([2]; calibration set): 16.0

Cn1c(=O)c2nc(-c3ccccc3)[nH]c2n(C)c1=O [Phenyl theophylline]
CHI at pH 2.6 ([2]; calibration set): 51.7
CHI at pH 7.4 ([2]; calibration set): 51.2
CHI at pH 10.5 ([2]; calibration set): 51.3

O=C1NC(=O)C(c2ccccc2)(c2ccccc2)N1 [Phenytoin]
log k HSA [3]: 0.69
hERG pIC50 [6]: 3.71
chromatographic logD [7]: 1.73
chromatographic logP [7, 15]: 1.85
log k AGP [8]: 0.15
Charge [11]: Weak Acid
CHI IAM [12]: 29.66
log k IAM [12]: 1.78

O=c1[nH]c2ccccc2n1C1CCN(CCCC(c2ccc(F)cc2)c2ccc(F)cc2)CC1 [Pimozide]
log k HSA [3]: 1.41
hERG pIC50 [6]: 6.43
chromatographic logD [7]: 3.03
chromatographic logP [7, 15]: 3.89
log k AGP [8]: 1.47
Charge [11]: Weak Base
log k IAM [12]: 2.83

CCC(=O)c1ccccc1 [Propiophenone]
CHI IAM [1]: 25.9
CHI at pH 2.6 ([2]; calibration set): 77.4
CHI at pH 7.4 ([2]; calibration set): 77.4
CHI at pH 10.5 ([2]; calibration set): 77.4

CCCOC(C(=O)OC1CCN(C)CC1)(c1ccccc1)c1ccccc1 [Propiverine]
log k HSA [3]: 1.01
hERG pIC50 [6, 14]: 5.22
chromatographic logD [7]: 3.84
chromatographic logP [7, 15]: 5.05
log k AGP [8]: 0.94
Charge [11]: Basic
log k IAM [12]: 3.12

CC(C)NCC(O)COc1cccc2ccccc12 (stereo not shown) [Propranolol]
%HSA [4]: 66.6%
log k HSA [5]: 0.3
log k AGP [8]: 0.84
% AGP [9]: 86.0%
log k AGP [10]: 0.8
Charge [11]: Basic
log k IAM [12]: 2.36

COc1ccc(CN(CCN(C)C)c2ccccn2)cc1 [Pyrilamine]
log k HSA [3]: 0.44
hERG pIC50 [6]: 5.18
chromatographic logD [7]: 1.72
chromatographic logP [7, 15]: 3.32
log k AGP [8]: 0.49
Charge [11]: Basic
CHI IAM [12]: 46.62
log k IAM [12]: 2.56

CC[C@H]1OC(=O)[C@H](C)[C@@H](O[C@H]2C[C@@](C)(OC)[C@@H](O)[C@H](C)O2)[C@H](C)[C@@H](O[C@@H]2O[C@H](C)C[C@H](N(C)C)[C@H]2O)[C@](C)(O)C[C@@H](C)/C(=N\OCOCCOC)[C@H](C)[C@@H](O)[C@]1(C)O [Roxithromycin]
log k HSA [3]: -0.07
hERG pIC50 [6, 14]: 4.44
chromatographic logD [7]: 1.95
chromatographic logP [7, 15]: 3.7
log k AGP [8]: 0.60
Charge [11]: Basic
CHI IAM [12]: 51.33
log k IAM [12]: 2.78

CCOc1ccccc1OCCN[C@H](C)Cc1ccc(OC)c(S(N)(=O)=O)c1 [Tamsulosin]
log k HSA [3]: 0.36
hERG pIC50 [6, 14]: 4.89
chromatographic logD [7]: 1.43
chromatographic logP [7, 15]: 2.01
log k AGP [8]: 0.60
Charge [11]: Basic
log k IAM [12]: 2.00

Cn1c(=O)c2[nH]cnc2n(C)c1=O [Theophylline]
CHI at pH 2.6 ([2]; calibration set): 17.9
CHI at pH 7.4 ([2]; calibration set): 18.4
CHI at pH 10.5 ([2]; calibration set): 5.0

COc1cc(Cc2cnc(N)nc2N)cc(OC)c1OC [Trimethoprim]
log k HSA [3]: -0.05
%HSA [4]: 37.6%
log k HSA [5]: -0.2
hERG pIC50 [6, 14]: 3.62
log k AGP [8]: -0.07
% AGP [9]: 46.2%
log k AGP [10]: -0.1
log k IAM [12]: 1.01

CCCCC(=O)c1ccccc1 [Valerophenone]
CHI IAM [1]: 37.3
CHI at pH 2.6 ([2]; calibration set): 96.4
CHI at pH 7.4 ([2]; calibration set): 96.2
CHI at pH 10.5 ([2]; calibration set): 96.4

CC(=O)CC(c1ccccc1)c1c(O)c2ccccc2oc1=O (stereo not shown) [Warfarin]
log k AGP [13]: 0.7
log k HSA [5]: 1.5
% AGP [9]: 83.2%

O=C1Cc2cc(CCN3CCN(c4nsc5ccccc45)CC3)c(Cl)cc2N1 [Ziprasidone]
log k HSA [3]: 1.42
hERG pIC50 [6]: 6.44
chromatographic logD [7]: 2.98
chromatographic logP [7, 15]: 2.96
log k AGP [8]: 1.09
Charge [11]: Weak Base
CHI IAM [12]: 47.92
log k IAM [12]: 2.62
